In patent US5719303A, “Phosphonic acid derivatives” (Eisai Co., Ltd., priority 1993, dated 1998) one finds IC50 data, which are given here for 15 compounds.

The IC50 is the concentration that gives 50% inhibition.

The target of this test is T1, squalene synthetase (Rattus norvegicus, UniProt Q02769).
T1 construct: 50 μl of a 1 mg/ml rat liver microsome; from tissue; host or cells: liver microsomes of Sprague-Dawley rats fed 2% cholestyramine; 105000 g fraction
T1 sequence (Q02769 1-416): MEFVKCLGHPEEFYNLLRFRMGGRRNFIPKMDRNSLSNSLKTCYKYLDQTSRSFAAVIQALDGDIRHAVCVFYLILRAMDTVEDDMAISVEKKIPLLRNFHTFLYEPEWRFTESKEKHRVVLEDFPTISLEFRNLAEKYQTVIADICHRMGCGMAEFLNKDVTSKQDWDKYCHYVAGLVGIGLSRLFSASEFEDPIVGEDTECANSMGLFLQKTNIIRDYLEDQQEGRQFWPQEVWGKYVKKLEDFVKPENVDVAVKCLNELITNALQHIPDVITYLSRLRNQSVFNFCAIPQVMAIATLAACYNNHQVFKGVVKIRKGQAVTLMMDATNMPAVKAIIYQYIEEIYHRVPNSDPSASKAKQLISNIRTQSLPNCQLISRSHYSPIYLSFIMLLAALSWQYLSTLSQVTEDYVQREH
In words: Inhibitory activity against squalene synthetase (3H-FPP to squalene, rat liver microsome). The test is classed as biochemical. The settings on record: 3H-FPP substrate, 37° C., 10 minutes, pH 7.4. Here is the method: 50 μl of 500 mM Tris-HCl (pH: 7.4), 50 μl of 10 mM magnesium chloride, 50 μl of 2 mM potassium fluoride, 50 μl of 10 mM nicotinamide adenine dinucleotide phosphate (hereinafter abbreviated to "NADPH"), 100 μl of a sample solution of five-fold concentration, 100 μl of distilled water and 50 μl of a 1 mg/ml rat liver microsome were put in a centrifuge tube, with the liver microsome being one prepared by the method which will be described below.
The above mixture was preincubated at 37° C. for 5 minutes. 50 μl of 100 μM 3H-FPP (10 mCi/mmol, NEN) was added to the resulting mixture to initiate a reaction. After 10 minutes, 1 ml of 4N sodium hydroxide was added to the mixture to stop the reaction, followed by the addition of 1 ml of ethanol. The obtained mixture was incubated at 80° C. for 12 hours, cooled with ice and extracted with petroleum ether twice. The petroleum ether phases were separated from the aqueous phase and evaporated to dryness with nitrogen gas. The residue was dissolved in 25 μl of chloroform containing squalene, farnesol and cholesterol as markers. The obtained solution was applied to TLC (Empore: 412001-1) and developed with benzene/isopropyl ether (1:1) for 6 minutes and with heptane for 15 minutes.
The band of squalene was cut from the plate and examined for radioactivity with a liquid scintillation counter to determine the inhibitory ratio.
The rate liver microsome used in the above experiment was prepared as follows.
A Sqraque-Dawley rat was fed with a feed containing 2% of cholestyramine (Dowex 1-X2) for at least 5 days to enhance the cholesterol biosynthesis activity. At midnight (0:00), the liver was extirpated from the rat. A 1.15 (w/v) % potassium chloride solution was circulated in the blood vessel of the liver extirpated under cooling with ice to remove the blood. The resulting liver was cut into small pieces with scissors, homogenized with a Teflon homogenizer of loose fitting type and subjected to centrifugation (700 g, 10 minutes). The obtained supernatant was further subjected to centrifugation (15000 g, 20 minutes) and the obtained supernatant was subjected to centrifugation (105000 g, 60 minutes) to be separated into a microsome fraction and a supernatant. This microsome fraction was washed with a 0.1M potassium phosphate buffer (pH: 7.4) once, and suspended in the same buffer in a liver concentration of 3 g/ml. The obtained suspension was examined for protein content by the Lowry method and the protein content of the suspension was adjusted to 20 mg/ml.
With `COc1ccc(C(=O)C2CCN(CCCC(P(=O)(O)O)P(=O)(O)O)CC2)cc1` [Example 16, 4-[4(4-Methoxybenzoyl)piperidino]butylidene-1,1-diphosphonic acid], the IC50 is 0.28 nM.

As for `CN(CCCC(P(=O)(O)O)P(=O)(O)O)Cc1ccc(C(=O)c2ccccc2)c(O)c1` [Example 201], the IC50 was found to be 0.91 nM.

In turn, `COc1ccccc1C(C)=CCN(C)CCCC(P(=O)(O)O)P(=O)(O)O` [Example 114] showed a half-maximal inhibitory concentration (IC50) of 2.4 nM.

Regarding `C/C(=C\CN(C)CC(O)CC(C(=O)O)P(=O)(O)O)CCc1ccc2ccccc2c1` (mixture of isomers) [Example 19, Trisodium 1-carboxy-4-[N-methyl-3-methyl-5-(2-naphthyl)-2-pentenylamino]-3-hydroxybutylphosphonate (diastereomeric mixture)], the IC50 amounted to 170 nM.

Compound `CC(=O)c1cccc(/C(C)=C/CN(C)CCCC(P(=O)(O)O)P(=O)(O)O)c1` [Example 238] yielded an IC50 of 0.54 nM.

The compound `CC(C)=CCC/C(C)=C/CN(C)C(=O)OCCCC(P(=O)(O)O)P(=O)(O)O` [Example 15, Tetrasodium 4-[(E)-N-(3,7-dimethylocta-2,6-dienyl)-N-methylcarbamoyloxybutylidene-1,1-diphosphonate] registered an IC50 of 0.81 nM.

Turning to `CC(O)c1ccc(Cc2ccc(CN(C)CCCC(P(=O)(O)O)P(=O)(O)O)cc2)cc1` (stereo not drawn) [Example 14, Tetrasodium 4[N-methyl-4-[4-(1-hydroxyethyl)benzyl]benzylamino]butylidene-1-diphosphonate], inhibition was half-maximal at 2.4 nM (IC50).

With `CC(C)=CCC/C(C)=C/CC/C(C)=C/c1cccc(C(P(=O)(O)O)P(=O)(O)O)c1` [Example 230], half-maximal inhibition (IC50) required 3 nM.

Compound `C/C(=C\CC(P(=O)(O)O)P(=O)(O)O)CCc1ccc2ccccc2c1` [Example 223] gave a concentration for half-maximal inhibition (IC50) of 1 nM.

`Cc1c(-c2ccccc2)ncn1CCCNC(P(=O)(O)O)P(=O)(O)O` [Example 210] came in with a half-maximal inhibitory concentration (IC50) of 4 nM.

For the compound `CC(O)c1ccc(-c2ccc(CN(C)CCCC(P(=O)(O)O)P(=O)(O)O)s2)cc1` (stereo not drawn) [Example 42], the IC50 stood at 1.8 nM.

Compound `CN(CCCC(P(=O)(O)O)P(=O)(O)O)Cc1ccc(-c2cccnc2)s1` [Example 41] came in with an IC50 of 5 nM.

In turn, `CN(CCCC(P(=O)(O)O)P(=O)(O)O)Cc1ccc(-c2ccccc2)cc1` [Example 32] gave an IC50 of 1.4 nM.

Consider `O=P(O)(O)C(CC1CCN(Cc2cccc(/C=C/c3ccccc3)c2)CC1)P(=O)(O)O` [Example 209], for which the IC50 stood at 1.3 nM.

Compound `CC(=O)c1ccc(Cc2ccc(CN(C)CCCC(P(=O)(O)O)P(=O)(O)O)cc2)cc1` [Example 246] came in with a concentration for half-maximal inhibition (IC50) of 3.1 nM.
